Source: PubChem BioAssay AID1918996 (Molecular Pharmacology Branch, DTP, NCI, 2023)

System: 349418-098-R-PDC complex spheroid growth
Assay: Anticancer human tumor 349418-098-R-PDC patient-derived lung adenocarcinoma cell line growth inhibition [AhR]
Details: for IC50: curve of first compound; for viability, T/C: stronger effect = lower value
Text: Multicellular complex tumor spheroid response to aryl hydrocarbon receptor antagonists in combination with a variety of drugs and investigational agents in selected tumor cell lines
The current study was undertaken to assess response to aryl hydrocarbon receptor antagonists in combination with standard-of-care drugs and investigational agents in solid tumor complex spheroid models. Complex spheroids include a stromal component modeled by human endothelial cells (HUVEC) and fibroblasts modeled by human mesenchymal stem cells (MSCs). The concentration ranges selected for each drug and investigational agent were based upon clinically achievable concentrations if the clinical Cmax of the agent was known.
Compounds. The drugs and investigational agents: BAY 2416964 (NSC825713), GNF351 (NSC835774), CH-223191 (NSC835775), CPI-455 (NSC825282), aza-TdCyd (NSC777586), decitabine (NSC127716), belinostat (NSC758774), entinostat (NSC756642), pevonedistat (NSC761192), tazemetostat (NSC777109), talazoparib (NSC765396), olaparib (NSC753686), selinexor (NSC780203), nedisertib (M3814, NSC802822), bortezomib (NSC756655), venetoclax (NSC766270), doxorubicin (NSC123127), elimusertib (BAY189344, NSC800525), ceralasertib (AZD6738, NSC777638), TAK-243 (NSC785004), alisertib (NSC759677), etoposide (NSC141540), topotecan (NSC609699), eribulin (NSC707389), gemcitabine (NSC613327), carboplatin (NSC241240), cisplatin (NSC119875), and SN-38 (NSC673596) were obtained from the National Cancer Institute (NCI) Developmental Therapeutics Program Chemical Repository (32). The FDA-approved anticancer drug set is available from the Developmental Therapeutics Program at https://dtp.cancer.gov/organization/dscb/obtaining/available plates.htm. […] The stock solutions were prepared in dimethyl sulfoxide (DMSO, Sigma-Aldrich, St. Louis, MO, cat. D2650), except for the platinum compounds which were prepared in saline (Quality Biological, Gaithersburg, MD, cat. 114-055-101), at 800-fold the tested concentration and stored at -70 degrees C prior to their use. All drugs and investigational agents were tested over a range starting from a high concentration at or near the clinical Cmax and decreasing in half-log increments. If the clinical Cmax for an agent had not been determined, the highest concentration tested was 10 microM (Table 1).
Cell Culture. All cells were maintained in an incubator at 37 degrees C and 5% CO2 with 95% humidity. The PDC lines were cultured according to standard operating procedures established by the NCI PDMR (https://pdmr.cancer.gov). Briefly, all PDCs were thawed and cultured in Matrigel-coated flasks prepared with a working solution of 1X Ham's F-12 nutrient mix, without supplementation (Invitrogen, Waltham, MA, cat. 11765054), 100 U/mL penicillin-streptomycin (Invitrogen, cat. 15140122), and 2.5% Matrigel (Corning Inc., Corning, NY, cat. 354248) for the first three passages. All PDCs were cultured in complete DMEM/F-12 media containing advanced DMEM/F-12 (Invitrogen, cat. 12634028), 4.9% defined fetal bovine serum, heat inactivated (HyClone Laboratories Inc., Logan, UT, cat. SH30070.03HI), 389 ng/mL hydrocortisone (Sigma-Aldrich, cat. H4001), 9.7 ng/mL human EGF recombinant protein (Invitrogen, cat. PHG0313), 23.4 microg/mL adenine (Sigma-Aldrich, cat. A2786), 97.3 U/mL penicillin-streptomycin (Invitrogen, cat. 15140122), 1.9 mM L-glutamine (Invitrogen, cat. 25030081), and 9.7 microM Y-27632 dihydrochloride (Tocris Bioscience, Bristol, United Kingdom, cat. 1254). The PDCs were cultured in complete DMEM/F12 media without 10 microM Y-27632 dihydrochloride for at least two passages prior to the screen. The established cell lines NCI-H1341 and […] were cultured in DMEM/F-12, HEPES (Invitrogen, cat. 11330032), 5% defined fetal bovine serum (HyClone Laboratories Inc., cat. SH30070.03), ITS premix universal culture supplement [insulin (5 microg/mL), transferrin (5 microg/mL), and selenious acid (5 ng/mL)] […]

[1] = second compound 0.1 µM, first compound 0.0316 µM
[2] = second compound 0.1 µM, first compound 0.1 µM
[3] = second compound 0.1 µM, first compound 0.316 µM
[4] = second compound 0.1 µM, first compound 1 µM
[5] = second compound 0.1 µM, first compound 3.16 µM
[6] = second compound 0.1 µM, first compound 10 µM
[7] = second compound 0.316 µM, first compound 0.0316 µM
[8] = second compound 0.316 µM, first compound 0.1 µM
[9] = second compound 0.316 µM, first compound 0.316 µM
[10] = second compound 0.316 µM, first compound 1 µM
[11] = second compound 0.316 µM, first compound 3.16 µM
[12] = second compound 0.316 µM, first compound 10 µM
[13] = second compound 1 µM, first compound 0.0316 µM
[14] = second compound 1 µM, first compound 0.1 µM
[15] = second compound 1 µM, first compound 0.316 µM
[16] = second compound 1 µM, first compound 1 µM
[17] = second compound 1 µM, first compound 3.16 µM
[18] = second compound 1 µM, first compound 10 µM
[19] = second compound 3.16 µM, first compound 0.0316 µM
[20] = second compound 3.16 µM, first compound 0.1 µM
[21] = second compound 3.16 µM, first compound 0.316 µM
[22] = second compound 3.16 µM, first compound 1 µM
[23] = second compound 3.16 µM, first compound 3.16 µM
[24] = second compound 3.16 µM, first compound 10 µM
[25] = second compound 10 µM, first compound 0.0316 µM
[26] = second compound 10 µM, first compound 0.1 µM
[27] = second compound 10 µM, first compound 0.316 µM
[28] = second compound 10 µM, first compound 1 µM
[29] = second compound 10 µM, first compound 3.16 µM
[30] = second compound 10 µM, first compound 10 µM
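Further: spheroids exposed to agents for seven days before luminescence viability read.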
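Wherever viability, T/C is given: spheroids also contain HUVEC endothelial cells and human MSC stroma.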

Row | IC50 (second compound 0.1 µM) [nM] | IC50 (second compound 0.316 µM) [nM] | IC50 (second compound 1 µM) [nM] | IC50 (second compound 3.16 µM) [nM] | IC50 (second compound 10 µM) [nM] | SMILES | viability, T/C [1] [%] | viability, T/C [2] [%] | viability, T/C [3] [%] | viability, T/C [4] [%] | viability, T/C [5] [%] | viability, T/C [6] [%] | viability, T/C [7] [%] | viability, T/C [8] [%] | viability, T/C [9] [%] | viability, T/C [13] [%] | viability, T/C [14] [%] | viability, T/C [19] [%] | viability, T/C [20] [%] | viability, T/C [25] [%] | viability, T/C [26] [%] | other results
1 | 6640 | 4530 | 5470 | 3020 | < 31.6 | CC1(C)CCC(CN2CCN(c3ccc(C(=O)NS(=O)(=O)c4ccc(NCC5CCOCC5)c([N+](=O)[O-])c4)c(Oc4cnc5[nH]ccc5c4)c3)CC2)=C(c2ccc(Cl)cc2)C1 + CC(CO)NC(=O)c1cc(-c2ccc(Cl)cc2)nn(-c2cnn(C)c2)c1=O | 77.7 | 89.9 | 96.2 | 76.9 | 82.5 | 32.2 | 85.2 | 81.1 | 70.2 | 89.3 | 97.4 | 80 | 86.8 | 45 | 54.1 | viability, T/C [10]: 66.9%; viability, T/C [11]: 65.9%; viability, T/C [12]: 27.8%; viability, T/C [15]: 80%; viability, T/C [16]: 65%; viability, T/C [17]: 79.2%; viability, T/C [18]: 28.2%; viability, T/C [21]: 77%; viability, T/C [22]: 71.4%; viability, T/C [23]: 49%; viability, T/C [24]: 24%; viability, T/C [27]: 48.9%; viability, T/C [28]: 48.5%; viability, T/C [29]: 48.2%; viability, T/C [30]: 26.6%
2 | 92.5 | 47.4 | 107 | 47.3 | < 31.6 | COc1cc(Nc2ncc3c(n2)-c2ccc(Cl)cc2C(c2c(F)cccc2OC)=NC3)ccc1C(=O)O + CC(CO)NC(=O)c1cc(-c2ccc(Cl)cc2)nn(-c2cnn(C)c2)c1=O | 66.3 | 49.3 | 33.4 | 37.4 | 31.7 | 23.1 | 58.7 | 33.7 | 29.5 | 71.9 | 51.3 | 55.2 | 41.3 | 38.4 | 23.4 | viability, T/C [10]: 29.2%; viability, T/C [11]: 28.1%; viability, T/C [12]: 26%; viability, T/C [15]: 27.8%; viability, T/C [16]: 31.3%; viability, T/C [17]: 29.5%; viability, T/C [18]: 32%; viability, T/C [21]: 32.8%; viability, T/C [22]: 28%; viability, T/C [23]: 28.8%; viability, T/C [24]: 29.7%; viability, T/C [27]: 32%; viability, T/C [28]: 24.8%; viability, T/C [29]: 20.9%; viability, T/C [30]: 24.2%
3 | > 100 | > 100 | > 100 | 14.3 | 4.21 | Cn1ncnc1C1c2n[nH]c(=O)c3cc(F)cc(c23)NC1c1ccc(F)cc1 (stereo not given) + CC(CO)NC(=O)c1cc(-c2ccc(Cl)cc2)nn(-c2cnn(C)c2)c1=O | 84.9 | 87.3 |  |  |  |  | 48 | 60.1 |  | 51.2 | 56.8 | 37.6 | 45.3 | 32.4 | 39.2 | viability, T/C (second compound 0.1 µM, first compound 0.000316 µM): 81.4%; viability, T/C (second compound 0.1 µM, first compound 0.001 µM): 85.1%; viability, T/C (second compound 0.1 µM, first compound 0.00316 µM): 94%; viability, T/C (second compound 0.1 µM, first compound 0.01 µM): 96.2%; viability, T/C (second compound 0.316 µM, first compound 0.000316 µM): 71.8%; viability, T/C (second compound 0.316 µM, first compound 0.001 µM): 84.4%; viability, T/C (second compound 0.316 µM, first compound 0.00316 µM): 60.6%; viability, T/C (second compound 0.316 µM, first compound 0.01 µM): 76.3%; viability, T/C (second compound 1 µM, first compound 0.000316 µM): 78.1%; viability, T/C (second compound 1 µM, first compound 0.001 µM): 106%; viability, T/C (second compound 1 µM, first compound 0.00316 µM): 83.9%; viability, T/C (second compound 1 µM, first compound 0.01 µM): 52.2%; viability, T/C (second compound 3.16 µM, first compound 0.000316 µM): 83.1%; viability, T/C (second compound 3.16 µM, first compound 0.001 µM): 68.9%; viability, T/C (second compound 3.16 µM, first compound 0.00316 µM): 55.7%; viability, T/C (second compound 3.16 µM, first compound 0.01 µM): 61%; viability, T/C (second compound 10 µM, first compound 0.000316 µM): 39.9%; viability, T/C (second compound 10 µM, first compound 0.001 µM): 64.7%; viability, T/C (second compound 10 µM, first compound 0.00316 µM): 59.8%; viability, T/C (second compound 10 µM, first compound 0.01 µM): 35.2%
4 | 188 | 149 | 107 | 49.4 | < 31.6 | NS(=O)(=O)OCC1CC(n2ccc3c(NC4CCc5ccccc54)ncnc32)CC1O (stereo not given) + CC(CO)NC(=O)c1cc(-c2ccc(Cl)cc2)nn(-c2cnn(C)c2)c1=O | 83.2 | 65.6 | 37.1 | 18.4 | 13.4 | 8.51 | 92.7 | 62.9 | 24.7 | 68.8 | 52.2 | 54.8 | 42.6 | 33.8 | 30.9 | viability, T/C [10]: 19.9%; viability, T/C [11]: 11.2%; viability, T/C [12]: 8.21%; viability, T/C [15]: 24.5%; viability, T/C [16]: 16.3%; viability, T/C [17]: 10.8%; viability, T/C [18]: 9.16%; viability, T/C [21]: 22.7%; viability, T/C [22]: 14.7%; viability, T/C [23]: 10.7%; viability, T/C [24]: 8.74%; viability, T/C [27]: 25.7%; viability, T/C [28]: 16.7%; viability, T/C [29]: 10.9%; viability, T/C [30]: 8.91%
